# Measured values reported in patent EP1940519B1, “Pharmaceutical composition comprising artesunate, sulfamethoxypyrazine and pyrimethamine for use in the treatment of malaria within one day” (Dafra Pharma N.V., priority 2005, dated 2007).
# Tests used:
# [1] = in vivo
# Protocol: Treatment safety was assessed clinically as well as by measuring hematological indices and serum creatinine and hepatic transaminase concentrations. The sample size was computed assuming equal efficacy of the two treatments, and 606 patients (303 in each treatment arm) were enrolled over two consecutive malaria transmission seasons.
# [2] = fatty meal (approximately 30 g of fat) versus low-fat meal; with artesunate 8 mg/kg and mefloquine 15 mg/kg over 12h; cited from earlier work
# [3] = tested on: uncomplicated falciparum malaria; conditions: area of multi-drug resistance, Thai-Burmese border; cited from earlier work
# [4] = tested on: Plasmodium falciparum malaria; conditions: India; number among the 89 subjects who completed the study; cited from earlier work
molecule,measurement,setting,value
artemether-lumefantrine,mild and transient elevation of transaminases,[1],0/72
"OC(c1cc(C(F)(F)F)nc2c(C(F)(F)F)cccc12)C1CCCCN1 (stereo not shown) [MQ, mefloquine]",bioavailability of mefloquine,[2],does not appear to increase the bioavailability
same,Overall failure rates by day 28,[3],24%
CCN(CC)CCCC(C)Nc1ccnc2cc(Cl)ccc12 (stereo not shown) [chloroquine],treatment failures,[4],46
